Measurements published in patent US10844002B2, “Lipids and lipid compositions for the delivery of active agents” (priority 2014, dated 2020).
“And” between values parts separate entries of the source, which are not always exact repeats. Identical values can stand only once.

Experiments:
[1] = Characterization of LNP formulations: Z average particle diameter and polydispersity index; format: physicochemical; details: LNP formulation
Excerpt: The lipid nanoparticles have a size of about 1 to about 2,500 nm, about 1 to about 1,500 nm, about 1 to about 1,000 nm, in a sub-embodiment about 50 to about 600 nm, in a sub-embodiment about 50 to about 400 nm, in a sub-embodiment about 50 to about 250 nm, and in a sub-embodiment about 50 to about 150 nm. Unless indicated otherwise, all sizes referred to herein are the average sizes (diameters) of the fully formed nanoparticle, as measured by dynamic light scattering on a Malvern Zetasizer. The nanoparticle sample is diluted in phosphate buffered saline (PBS) so that the count rate is approximately 200-400 kcts. The data is presented as a weighted average of the intensity measure.

[2] = test system: H1N1 influenza A strain, Ca107; assay: Immunogenicity in ferret models (Influenza): haemagultanin inhibition (HAI) titers; format: in vivo, ferrets; details: IM
Description: For immunization in ferrets, a lipid working solution was freshly prepared by dissolving 22.5 mg of Example 1, 5.9 mg of DSPC, 13.9 mg of Cholesterol and 4.0 mg of PEG2000-conjugated DMPE (cat #880150P, Avanti Polar Lipids, Inc.) in 10 ml ethanol. A 10 mL working solution of RNA was also prepared at a concentration of 0.125 mg/ml in 100 mM citrate buffer (pH 6). The working lipid and RNA solutions were heated at 37° C. for 5 min before being loaded into two 10 cc luer-lok syringes. […] The outlet from the T mixer was also FEP tubing separately, 10 mL of citrate buffer (pH 6) was loaded in a third 10 cc syringe which was connected to a separate piece of tubing. All three syringes were loaded on a syringe pump and driven at 1.0 ml/min. The tubing outlets were positioned to collect the mixtures in a 20 mL glass vial which was gently stirred using a stirring bar. All glass vials were baked at 250° C. for 12 hours prior to experiment to completely inactivate any RNase contaminant. At the end of mixing, the stir bar was taken out and the ethanol/aqueous solution was allowed to equilibrate to room temperature for 1 hour. After incubation, the ethanol/aqueous solution was loaded into a syringe, and mixed with equal volume of 100 mM citrate buffer (pH 6) using the aforementioned Tee-junction process. Next, LNPs were concentrated to 20 mL and dialyzed against 10-15 volumes of 1× PBS using by tangential flow filtration before recovering the final product. The TFF system and hollow fiber filtration membranes were purchased from Spectrum Labs (Rancho Dominguez) and were used according to the manufacturer's guidelines. Polysulfone hollow fiber filtration membranes with a 100 kD pore size cutoff and 8 cm^2 surface area were used. For in vitro and in vivo experiments formulations were diluted to the required RNA concentration with 1×. PBS.
A total of seven experimental groups with six animals per group (42 animals) were used in this study; two vaccine doses of each RNA formulation (Groups 2-5), two groups vaccinated with a non-adjuvated (H1N1 subunit) or an adjuvated (MF59/H1N1 subunit) commercially available H1N1 influenza subunit vaccine (Groups 6 and 7) and a mock vaccinated group (Group 1). The RNA test vaccines were derived from a recombinant DNA plasmid (pDNA) carrying an alphavirus genome in which the structural genes were replaced with the HA gene from the H1N1 influenza A strain, Ca107. The RNA was then formulated in either cationic oil-in-water emulsion (CNE) or LNP for delivery to host cells via intramuscular (IM) injection. RNA concentrations for each formulation study group were 15 and 45 mcg for CNE and 5 and 15 mcg for LNP. The H1N1 subunit vaccines were used at a HA subunit protein concentration of 15 mcg. Non-vaccinated animals were mock vaccinated with a vehicle control for the RNA test vaccines. All test vaccines were administered by IM injection on Study Days (SD) 0 followed with a booster vaccination on Study Day 56 (8 weeks post 1st immunization).
Table 5 summarizes Influenza microneutralization data and table 6 the haemagultanin inhibition (HAI) titers. The LNP formulation tested generated immune responses with as little as 5 μg of self-amplifying RNA, as determined by increased HA-specific neutralization and HAI titers.

[3] = Measurement of mRNA encapsulation in lipid nanoparticles (Quant-iT Ribogreen); format: physicochemical; details: LNP cationic lipid/DSPC/cholesterol/stealth lipid, N:P 4:1, leptin mRNA
Description: All equipment and disposable supplies are certified free of RNase activity by the manufacturer or rendered RNase free by use of the RNaseZap reagent (LifeTechnologies). mRNA is encapsulated at a cationic lipid amine to mRNA phosphate (N:P) molar ratio of 4:1. Lipids (cationic lipid, DSPC, cholesterol and lipidated PEG or stealth lipid) are dissolved in ethanol. The molar ratios are 40:10:38:2, respectively. The mixture is sonicated briefly, then gently agitated for 5 minutes and then maintained at 37° C. until use. mRNA is exchanged into citrate buffer pH 5.8-6.0 by use of Amicon Ultra-15 centrifugal concentrators, and the final concentration is adjusted to 0.5 mg/ml and held at 37° C. until use. An equal volume of lipids in ethanol, mRNA in citrate buffer, and citrate buffer alone are drawn into disposable syringes. Tubing leading from syringes containing lipids and mRNA are attached to the T junction, and tubing leading from the syringe containing citrate buffer alone is paired with the tubing exiting the T-junction over a collection vessel containing a stir bar on an active stir plate. Syringes are placed in a syringe pump set to expel contents at a flow rate of 1 ml per minute.
The pump is activated, and the collected mRNA in lipid nanoparticles is transferred to SnakeSkin dialysis tubing (10,000 MWCO, Thermo Scientific). Material is dialyzed against RNAse- and pyrogen-free 1× phosphate buffered saline overnight at 4° C.
Percent encapsulation of mRNA in lipid nanoparticles is determined using the Quant-iT Ribogreen RNA Assay kit (Life Technologies). The LNP-mRNA suspension is assayed in buffer (mRNA outside the particle), and buffer plus Triton X-100 detergent (total mRNA). The difference calculated is the mRNA inside the particle. Prepare a 1000 ng/mL stock from the RNA provided in the kit and use this to generate a standard curve (0 ng/ml, 15.63-1000 ng/ml) in TE and TE+0.75% Triton X-100. Prepare LNP-mRNA samples in TE buffer and TE buffer+0.75% Triton X-100 with appropriate dilution so that reading is in the range of standard curve (400-2,000 fold). In a 384-well plate (Costar non-treated #3573) add 0.04 ml of standard (in duplicate) or sample (in triplicate) per well. Dilute Ribogreen reagent 240-fold in TE buffer and add 0.06 ml per well. Mix contents of wells and measure fluorescence (excitation=480 nm, emission=520 nm). Subtract background values (no RNA) from standard and test sample values and determine the concentrations of RNA in the samples using the standard curves. Determine the percent encapsulation of the sample by dividing the difference in concentrations between sample+triton and sample in buffer alone by the sample+triton concentration.

## CCCCC/C=C\C/C=C\CCCCCCCCOc1ccc(OCCCCCCCC/C=C\C/C=C\CCCCC)c(COC(=O)CCCN(C)C)c1 [Example 1, 2,5-bis((9Z,12Z)-octadeca-9,12-dien-1-yloxy)benzyl 4-(dimethylamino)butanoate]
[1]; Z average particle diameter
  Zav (nm): 135.3 nm
[1]; polydispersity index
  polydispersity: 0.11
[2]; 5 mcg RNA, 4wp1, per animal
  Influenza HAI titer: 20 (2×) and 80 and 40 (2×) and 10
[2]; 5 mcg RNA, 4wp2, per animal
  Influenza HAI titer: 640 (2×) and >20480 (3×) and 320
[2]; 5 mcg RNA, 8wp1, per animal
  Influenza HAI titer: 20 (2×) and 40 (2×) and 10 and <10
[2]; 5 mcg RNA, Pre-bleed, per animal
  Influenza HAI titer: <10
[2]; 15 mcg RNA, 4wp1, per animal
  Influenza HAI titer: 160 (2×) and 320 and 80 (2×) and 40
[2]; 15 mcg RNA, 4wp2, per animal
  Influenza HAI titer: 640 (4×) and >20480 (2×)
[2]; 15 mcg RNA, 8wp1, per animal
  Influenza HAI titer: 40 (3×) and 80 (2×) and 20
[2]; 15 mcg RNA, Pre-bleed, per animal
  Influenza HAI titer: <10
[3]
  % encapsulation (mRNA Leptin): 73.3%
